One block for each compound: values may come before it.
Key:
RM-1 cells = conditions: single treatment with adenovirus expressing HSV-tk and ganciclovir; cited from earlier work
[1] = system: tumor cell types expressing herpes virus tk; conditions: cited from earlier work
Fv2-casp-3 [2] = target: T1, Fv2-casp-3 (Homo sapiens, UniProt P62942, F37V); experiment: SEAP reporter assay, Jurkat TAg cells transfected with Fv2-casp-3; format: cell-based; conditions: 2 μg Fv2-casp-3, Jurkat TAg, in the presence of AP1903
T1 construct: caspase-3 (same polypeptide); expressed in transfected cells; host or cells: Jurkat TAg

Fv2-casp-3/S163 = target: T2, Fv2-casp-3/S163 (Homo sapiens, UniProt P42574+P62942, C163S/F37V); experiment: SEAP reporter assay, Jurkat TAg cells transfected with inactive Fv2-casp-3/S163; format: cell-based; conditions: 100 nM AP1903, enzymatically inactive caspase-3
T2 construct: caspase-3 C163S (same polypeptide); expressed in transfected cells; host or cells: Jurkat TAg
Procedure: Jurkat TAg cells (10^7) in log phase growth were electroporated (950 μF, 250V; Gene Pulser II) with expression plasmid and 1-2 μg SRα-SEAP. After 24 hours, transformed cells were stimulated with CID or anti-Fas antibody (CH.11, Kamiya Biomedical). After an additional 20 hours, supernatants were assayed for SEAP activity as described previously (15). Units of SEAP activity are reported directly and as a percentage of activity relative to no stimulation within the same transfections (% Relative Activity).
In contrast to caspase-1 and Fas, conditional caspase-3 alleles are not apparently autotoxic (FIGS. 7-9). With reference to FIGS. 7 and 8, Jurkat TAg cells were transiently-transfected with: 2 μg Fv2-casp-3 (open squares), or 2 μg Fv2-casp-3/S163 (closed squares). With reference to FIG. 9, Jurkat TAg cells were transfected with: 2 μg Fpk3-casp-3/S163 (closed triangles), 2 μg Fpk3-casp-3 (open squares), or 2 μg Fpk3-Δ20casp-3 (closed squares). After 20 hours, transfected cells were treated and analyzed as before. Data is representative of at least three independent experiments performed in duplicate.

Fv2-casp-3 [3] = target: T1, Fv2-casp-3; experiment: Western blot of processing and degradation of Fv2-casp-3 in Jurkat cells; format: cell-based
Procedure: Jurkat TAg cells were electroporated with 2 μg of plasmid, cultured 36 hours, and stimulated with drug for the indicated time period. Approximately 5×10^5 cells were lysed in 100 μl RIPA buffer (0.01M TrisHCl pH 8.0, 140 mM NaCl, 1% Triton X-100, 1 mM phenylmethylsulfonyl fluoride, 1% sodium deoxycholate, 0.1% SDS) on ice for 30 minutes. Cell debris were pelleted and supernatants were boiled in 1:1 Laemmli sample buffer (with 5% β-ME) for 5 minutes. […] Membranes were incubated with monoclonal anti-HA epitope antibody, HA.11 (BABCO) followed by polyclonal HRP-conjugated goat anti-mouse antibody (Bio-Rad). Bands were detected with SuperSignal-Chemiluminescent Substrate (Pierce).
Processing of caspase-3, and other caspases, ordinarily involves two or more cleavages after aspartic acid residues. To confirm that the CID-mediated diminution of reporter activity was caused by activation of the conditional caspases, the processing and degradation of conditional caspase-3 was directly examined. Jurkat cells were transfected 2 μg Fv2-casp-3 or Fv2-casp-3/S163. […] Following these incubations, cell extracts were analyzed by western blotting using monoclonal antibodies to an epitope tag (HA) placed at both ends of the construct.
The breakdown products of caspase-3 activation were not seen even though epitope tags were present at both ends of the protein. […] Therefore, homomultimerization of the caspases, caspase-1 and caspase-3, is sufficient for their activation.

conditional YAMA = target: T3, conditional YAMA (Homo sapiens, UniProt P62942, F37V); experiment: Luciferase survival assay, BPH-derived smooth muscle cells (JD, CR-2a) transfected with conditional YAMA; format: cell-based
T3 construct: caspase-3 / YAMA (same polypeptide); expressed in transfected cells; host or cells: JD and CR-2a (smooth muscle cell lines from BPH patients)
From the text: (§1) Conditional Fas, YAMA and a YAMA construct containing a single, inactivating point mutation were cotransfected with a luciferase reporter plasmid (pGL2) into JD and CR-2a cell lines. These are smooth muscle cell lines derived from prostate tissue samples taken from patients with BPH. […] Cells were then lysed and assayed for luciferase activity as a marker of cell survival.
(§2) It is worth noting that a conditional Fas-based treatment for BPH is not possible since the Fas construct was not effective in causing apoptosis in BPH derived cell lines. It is quite likely that Fas-based methods will be ineffective in many other cell types, thus severely limiting the utility of this approach.

conditional Fas = target: T4, conditional Fas (Homo sapiens, UniProt P62942, F37V); experiment: Luciferase survival assay, BPH-derived smooth muscle cells transfected with conditional Fas; format: cell-based; conditions: with or without AP1903, 24 hours
T4 construct: Fas cytoplasmic portion (same polypeptide); expressed in transfected cells; host or cells: JD and CR-2a (smooth muscle cell lines from BPH patients)
From the text: as §1, §2

inactivated YAMA = target: T5, inactivated YAMA (Homo sapiens, UniProt P42574+P62942, C163S/F37V); experiment: Luciferase survival assay, BPH-derived smooth muscle cells transfected with inactivated YAMA; format: cell-based; conditions: with or without AP1903, 24 hours
T5 construct: caspase-3 C163S (same polypeptide); expressed in transfected cells; host or cells: JD and CR-2a (smooth muscle cell lines from BPH patients)
From the text: as §1, §2

JD-2a cells = experiment: Fluorescent microscopy of JD-2a cells infected with Adv-Fv1-YAMA; format: cell-based, human; conditions: Adv-Fv1-YAMA MOI ~25, 50 nM AP1903 for 24 hours
Procedure: Replication deficient (ΔE1) adenoviral vectors expressing green flourescent protein and conditional Caspase 1 (ICE) or Caspase 3 (YAMA) were engineered. These vectors independently express green fluorescent protein so that infected cells are easily identified by their green color under fluorescent microscopy.
40,000 JD-2a cells per well were plated in 24-well plates and infected at a multiplicity-of-infection (MOI) of ˜25 with Adv-Fv1-YAMA, an adenoviral vector expressing CID-regulated YAMA. […] All of the cells incubated with virus and maintained in control media appeared green, and were clearly attached and viable, similar to non-fluorescent non-infected JD-2a cells (FIG. 47b).

FKBP12V36 (Fv) = FKBP12V36 (Fv) (Homo sapiens, UniProt P62942, F37V); experiment: CID binding to mutant FKBP12 (F36V, Fv); conditions: relative to AP1903
S-Fv3-Casp3 = target: T6, S-Fv3-Casp3 (Homo sapiens, UniProt P62942, F37V); experiment: SEAP reporter assay, Jurkat TAg cells, S-Fv3-Casp3; format: cell-based; conditions: construct containing three Fvs; read-out: IC50 (decrease in SEAP activity)
T6 construct: caspase-3 (same polypeptide); expressed in transfected cells; host or cells: Jurkat TAg
Procedure: (§3) Jurkat TAg cells (10^7) in log phase growth were electroporated (950 μF, 250 V) with expression plasmid and 2 μg SRα-SEAP. […] Units of SEAP activity are reported directly and as a percentage of activity relative to no stimulation (“% Relative SEAP activity”). All experiments were repeated at least three times and representative experiments performed with duplicate samples are shown.

S-Fv2-Casp1 = target: T7, S-Fv2-Casp1 (Homo sapiens, UniProt P62942, F37V); experiment: SEAP reporter assay, Jurkat TAg cells, S-Fv2-Casp1; format: cell-based; conditions: caspase-1 fused to two Fvs, no linker
T7 construct: caspase-1 (same polypeptide); expressed in transfected cells; host or cells: Jurkat TAg
Procedure: as §3

T1 sequence (P62942 2-108 F37V): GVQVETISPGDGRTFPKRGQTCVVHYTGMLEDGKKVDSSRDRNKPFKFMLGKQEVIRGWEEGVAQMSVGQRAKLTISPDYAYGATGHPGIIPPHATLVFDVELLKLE
T3 sequence (P62942 2-108 F37V): as above
T3 sequence (P42574 2-277 partner limits assumed): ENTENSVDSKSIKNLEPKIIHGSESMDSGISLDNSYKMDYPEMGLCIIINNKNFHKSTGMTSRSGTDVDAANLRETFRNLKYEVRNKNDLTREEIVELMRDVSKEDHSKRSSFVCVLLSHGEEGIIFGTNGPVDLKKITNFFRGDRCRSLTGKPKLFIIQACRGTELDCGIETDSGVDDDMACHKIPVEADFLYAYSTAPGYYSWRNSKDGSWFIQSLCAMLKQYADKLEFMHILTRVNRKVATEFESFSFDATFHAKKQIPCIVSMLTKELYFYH
Chain of FKBP12V36 (Fv) (P62942 whole entry F37V): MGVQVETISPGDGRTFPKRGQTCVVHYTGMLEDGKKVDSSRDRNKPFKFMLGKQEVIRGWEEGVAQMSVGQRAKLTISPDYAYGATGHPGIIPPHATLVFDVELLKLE
T6 sequence (P62942 2-108 F37V): as the sequence (P62942 2-108 F37V) above
T6 sequence (P42574 2-277 partner limits assumed): as the sequence (P42574 2-277 partner limits assumed) above
T7 sequence (P62942 2-108 F37V): as the sequence (P62942 2-108 F37V) above
T7 sequence (P29466 2-404 partner limits assumed): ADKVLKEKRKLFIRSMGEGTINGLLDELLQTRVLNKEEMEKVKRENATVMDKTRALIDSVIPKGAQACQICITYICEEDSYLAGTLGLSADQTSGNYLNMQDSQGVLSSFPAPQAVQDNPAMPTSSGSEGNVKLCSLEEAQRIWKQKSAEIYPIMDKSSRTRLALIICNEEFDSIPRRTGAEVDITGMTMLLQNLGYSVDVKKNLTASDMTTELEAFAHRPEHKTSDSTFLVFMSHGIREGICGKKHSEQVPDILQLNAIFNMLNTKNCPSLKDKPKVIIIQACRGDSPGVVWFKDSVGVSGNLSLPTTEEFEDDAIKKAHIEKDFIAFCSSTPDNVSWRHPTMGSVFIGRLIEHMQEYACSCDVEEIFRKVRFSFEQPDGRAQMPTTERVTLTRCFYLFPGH
T4 sequence (P62942 2-108 F37V): as the sequence (P62942 2-108 F37V) above
T4 sequence (P25445 191-335 partner limits assumed): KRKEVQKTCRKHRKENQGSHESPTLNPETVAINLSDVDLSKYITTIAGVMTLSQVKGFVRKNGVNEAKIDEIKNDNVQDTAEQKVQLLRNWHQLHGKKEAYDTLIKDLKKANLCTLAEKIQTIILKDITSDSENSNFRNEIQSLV

Compound: Nc1nc(O)c2ncn(COC(CO)CO)c2n1 [ganciclovir]
- reduction in lung colonization (RM-1 cells): 40%
- dose up to which the cell line was essentially immune ([1]; ESB cell line): up to 1 μg/mL
- time necessary to effect a substantial amount of cell death ([1]; high doses of ganciclovir): 6 to 22 days

- reduction in reporter activity (Fv2-casp-3 [2]): ≈ 65%
- reduction of reporter activity (Fv2-casp-3/S163): could not reduce reporter activity
- time to full degradation of Fv2-casp-3 (Fv2-casp-3 [3]; 100 nM AP1903): four
- time to complete degradation of full-length caspase-3 (Fv2-casp-3 [3]; 500 nM AP1903): ≤ 2 h
- concentration sufficient to cause the processing and degradation of the majority of Fv2-casp-3 (Fv2-casp-3 [3]; treated for eight hours, half-log dilutions): 10 nM
Compound: CC[C@H](C(=O)N1CCCC[C@H]1C(=O)O[C@H](CCc1ccc(OC)c(OC)c1)c1cccc(OCC(=O)NCCNC(=O)COc2cccc([C@@H](CCc3ccc(OC)c(OC)c3)OC(=O)[C@@H]3CCCCN3C(=O)[C@@H](CC)c3cc(OC)c(OC)c(OC)c3)c2)c1)c1cc(OC)c(OC)c(OC)c1 [AP1903]
- reduction in reporter activity (conditional YAMA; 100 μM AP1903 for 24 hours): 82%
- luciferase activity (conditional YAMA; treated with 100 μM AP1903 for 24 hours, 668±67 without AP1903): 119±13
- reduction in the percentage of surviving cells (conditional Fas): no significant reduction
- reduction in the percentage of surviving cells (inactivated YAMA): no significant reduction
- cells either dead or in the process of undergoing apoptosis (JD-2a cells): > 99%

Compound: FK1012
- lower affinity of FK1012 for Fv versus AP1903 (FKBP12V36 (Fv)): ten-fold
- IC50 (S-Fv3-Casp3): ~20 nM
- IC50 (S-Fv2-Casp1): 1 nM

Source: patent US20040040047A1 (priority 1998, published 2004)
